# Measured values: ChEMBL document CHEMBL2417360, “Parguerene and precarriebowmide, two classes of lipopeptides from the marine cyanobacterium Moorea producens” (J Nat Prod, 2013)
# Experiment: Cytotoxicity against human H460 cells after 48 hrs by MTT assay
# Type: functional, cell-based
# Conditions: NCI-H460, 48 h
smiles,measurement,value
CCC[C@H]1NC(=O)[C@H](C)NC(=O)[C@H](CC(C)C)N(C)C(=O)[C@H](Cc2ccccc2)NC(=O)[C@H](CCSC)NC(=O)[C@@H](Cc2ccccc2)N(C)C(=O)[C@@H](C(C)C)OC(=O)[C@H]1C [PRECARRIEBOWMIDE],IC50,> 10 µM
